Publication PMC6362346, “Serendipita indica E5′NT modulates extracellular nucleotide levels in the plant apoplast and affects fungal colonization” (EMBO Reports, 2019)

Biological target: T1, SiE5′NT (Serendipita indica, UniProt G4T774)
T1 construct: gene PIIN_01005; untagged full-length with signal peptide and predicted GPI anchor, 35S promoter, expressed in Arabidopsis thaliana (line 303 1L3); detergent-solubilised membrane protein preparation
T1 sequence (G4T774 20-579): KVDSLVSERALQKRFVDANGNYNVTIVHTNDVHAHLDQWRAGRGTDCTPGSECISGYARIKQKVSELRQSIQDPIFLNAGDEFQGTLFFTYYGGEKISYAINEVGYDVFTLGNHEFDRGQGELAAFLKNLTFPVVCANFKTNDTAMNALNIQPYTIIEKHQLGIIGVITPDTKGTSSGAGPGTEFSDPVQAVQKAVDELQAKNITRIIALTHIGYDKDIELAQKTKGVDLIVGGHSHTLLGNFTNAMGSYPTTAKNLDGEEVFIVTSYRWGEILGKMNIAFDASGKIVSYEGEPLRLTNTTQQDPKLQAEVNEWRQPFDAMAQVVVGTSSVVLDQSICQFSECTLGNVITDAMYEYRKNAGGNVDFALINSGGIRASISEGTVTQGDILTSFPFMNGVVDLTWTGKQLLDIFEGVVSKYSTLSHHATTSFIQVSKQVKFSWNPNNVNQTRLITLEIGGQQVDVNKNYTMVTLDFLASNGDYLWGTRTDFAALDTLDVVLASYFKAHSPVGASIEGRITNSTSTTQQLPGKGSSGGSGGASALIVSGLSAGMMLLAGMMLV
Test: phosphate release (EnzChek phosphate assay), membrane protein preparation of transgenic A. thaliana versus mCherry control line
Assay type: biochemical
Conditions: 100 μM substrate, 10 mM Tris/MES, 2 mM MgCl2, 30 mM KCl, pH 6.5

Nc1ncnc2c1ncn2[C@@H]1O[C@H](COP(=O)(O)O)[C@@H](O)[C@H]1O [AMP]
phosphate release (EnzChek phosphate assay), membrane protein preparation of tra: production of a membrane‐localized enzyme capable of hydrolyzing ATP, ADP, and AMP

Nc1ncnc2c1ncn2[C@@H]1O[C@H](COP(=O)(O)OP(=O)(O)OP(=O)(O)O)[C@@H](O)[C@H]1O [ATP]
phosphate release (EnzChek phosphate assay), membrane protein preparation of tra: production of a membrane‐localized enzyme capable of hydrolyzing ATP, ADP, and AMP
